Like-named read-outs stand apart in the source and are kept apart here.
Assays:
[1] = target: T1, Fatty Acid Binding Protein 4 (FABP4) (Homo sapiens, UniProt P15090); assay: FABP4 Inhibitor/Ligand Screening Kit (fluorescence); conditions: based on contribution across all actives, read-out: Predicted IC50
T1 construct: purchased Cayman, Ann Arbor, Mich
Description: Fatty Acid Binding Protein 4 (FABP4) inhibition was determined using the Fatty Acid Binding Protein 4 (FABP4) Inhibitor/Ligand Screening Kit (Cayman, Ann Arbor, Mich.). […] Potential inhibitors/ligands of the FABP4 protein were incubated to FABP4 in assay buffer for 15 minutes at room temperature. Arachidonic acid was used as a known inhibitor standard for comparison. The positive control wells received no inhibitor/ligand (i.e., no arachidonic acid or extract) and the negative control wells received no FABP4. The extracts, in solution, were then exposed to a developer that will fluoresce when bound to FABP4. If FABP4 is inhibited, reduction in fluorescence yield is observed. Fluorescence was quantified using a Synergy 4 plate reader that is tuned to excitation/emission wavelengths of 370 nm and 475 nm, respectively. The fluorescence of the negative controls was subtracted from the positive control wells, and the fluorescence from the “undetected” wells was subtracted from the corresponding “detected” wells. An IC50 value was determined based on the percent fluorescence of the corrected extract wells relative to the corrected positive controls.

3T3-L1 cells = assay: [1,2-3H]2-Deoxy-D-glucose (2-deoxyglucose) uptake; assay type: cell-based; conditions: for CPM (glucose uptake): 3T3-L1 cells
Description: 1. [1,2-^3H]2-Deoxy-D-glucose (2-deoxyglucose) Uptake: Cells, 3T3-L adipocytes, were grown and differentiated as described below. Prior to [^3H]2-deoxyglucose uptake, cells were switched to DMEM with 0.1% bovine serum albumin for 6 h. The [^3H]2-deoxyglucose uptake was assayed as described (D. R. Cooper, J. E. Watson, N. Patel, P. Illingworth, M. Cevedo-Duncan, J. Goodnight, C. E. Chalfant, and H. Mischak, 1999. Ectopic expression of protein kinase CbetaII, -delta, and -epsilon, but not-betaI or -zeta, provide for insulin stimulation of glucose uptake in NIH-3T3 cells. Arch. Biochem. Biophys., 372:69-79; T. P Ciraldi, O. G. Kolterman, and J. M. Olesky, 1981. Mechanism of the postreceptor defect in insulin action in human obesity: decrease in glucose transport system activity. J. Clin Invest., 68:875-880.). […] Uptake was measured by the addition of 10 nmol of [^3H] 2-deoxyglucose (50-150 μCi/μmol) and followed by incubation for 6 min at 37° C. The uptake was terminated by aspiration of media and cell monolayers were washed three times with cold DPBS. Cells were lysed with 1 ml of 1% (w/v) SDS, and radioactivity determined by liquid scintillation counting. The 2-Deoxyglucose uptake refers to transport of the analogue across the plasma membrane operating in tandem with its phosphorylation by hexokinase.

[2] = range across SRB Extracts 1 to 14

T1 sequence (P15090 whole entry, species assumed): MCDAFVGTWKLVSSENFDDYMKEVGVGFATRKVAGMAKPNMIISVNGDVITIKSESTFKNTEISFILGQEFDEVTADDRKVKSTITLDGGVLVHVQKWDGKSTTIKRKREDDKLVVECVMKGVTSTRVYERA

CC[C@H]1CC[C@H]2[C@@H]3CC(O)C4CC(O)C(O)C[C@]4(C)[C@H]3CC[C@]12C (some centres unmarked) [Pregnane-2,3,6-triol] was tested, and the IC50 ([1]; in SRB Extract 6) was 69.4 µM and the IC50 [1, 2] was 44.2 to 80.4 µM.
In the case of “Insulin: insulin, comparator for glucose uptake stimulation”, the “Increase over 200 nM Insulin” value (3T3-L1 cells; 50 nM insulin) is reported as 0.6, the “Increase over Control” value (3T3-L1 cells; 50 nM insulin) is reported as 1.1 and the “Max CPM” value (3T3-L1 cells; 50 nM insulin) is reported as 149 CPM. For the same compound, the “Increase over 200 nM Insulin” value (3T3-L1 cells; 100 nM insulin) was 0.6, the “Increase over Control” value (3T3-L1 cells; 100 nM insulin) was 1.2 and the “Max CPM” value (3T3-L1 cells; 100 nM insulin) was 157 CPM. The “Increase over Control” value (3T3-L1 cells; 200 nM insulin) was 2.0, the “Max CPM” value (3T3-L1 cells; 200 nM insulin) was 266 CPM and the “CPM (glucose uptake)” value (3T3-L1 cells; insulin 50 nM) was 149 CPM. The “CPM (glucose uptake)” value (3T3-L1 cells; insulin 100 nM) was 157 CPM and the “CPM (glucose uptake)” value (3T3-L1 cells; insulin 200 nM) was 266 CPM.
Compound CCCCCCCCC=CCCCCCCCC1CC(O)C(=O)O1 (centres unmarked) [5-(8-Heptadecenyl)dihydro-3-hydroxy-2(3H)-furanone] has an IC50 ([1]; in SRB Extract 6) of 96.8 µM and an IC50 [1, 2] of 38.9 to 117 µM.
Compound CCCCC/C=C\C/C=C\CCCCCCCC(=O)OCC(CO)OC(=O)CCCCCCC/C=C\C/C=C\CCCCC (centres unmarked) [Glycerol 1,2-di-(9Z,12Z-octadecadienoate)] has an IC50 ([1]; in SRB Extract 6) of 24.7 µM and an IC50 [1, 2] of 4.89 to 56 µM.
“4,5-Dihydro-4-hydroxy-5-methyl-2-tetradecyl-2(3H)-furanone” was tested, and the IC50 ([1]; in SRB Extract 6) was 73.3 µM and the IC50 [1, 2] was 61 to 85 µM.
Compound CCCCCCCCCCCCCCCCCCCCCCCCCCCCCCOC(=O)C=Cc1ccc(O)c(O)c1 [3-(3,4-Dihydroxyphenyl)-2-propenoicacid Triacontyl ester] has an IC50 ([1]; in SRB Extract 6) of 29.7 µM and an IC50 [1, 2] of 7.99 to 101 µM.
With 24-Nor-4(23),9(11)-fernadiene the IC50 [1, 2] was 29.9 to 61.3 µM.
Compound CC(=O)CC/C=C(\C)CC/C=C(\C)CC/C=C(\C)CC/C=C(\C)CC/C=C(\C)CC/C=C(\C)CC/C=C(\C)CCC=C(C)C [Bombiprenone] has an IC50 ([1]; in SRB Extract 6) of 26.5 µM and an IC50 [1, 2] of 6.96 to 81.2 µM.
CC1(C)CCC2(C)CCC3(C)C(=C2C1)C=CC1C2(C)CCCC(C)(C)C2CCC13C (centres unmarked) [11,13(18)-Oleanadiene] showed an IC50 ([1]; in SRB Extract 6) of 91 µM and an IC50 [1, 2] of 28.3 to 90.3 µM.
CC1CCC2(C)CCC3(C)C(=CCC4C5(C)CCCC(C)C5CCC43C)C2C1C (centres unmarked) [24-Nor-12-ursene] was tested, and the IC50 ([1]; in SRB Extract 6) was 199 µM and the IC50 [1, 2] was 17.4 to 160 µM.
For C=C(CCC(C)C1CCC2(C)C3CCC4CC(O)CCC45CC35CCC12C)C(C)C (centres unmarked) [14-Methyl-9,19-cycloergost-24(28)-en-3-ol], the IC50 ([1]; in SRB Extract 6) was 60.5 µM and the IC50 [1, 2] was 21.3 to 25.7 µM.
In the case of CCCCCCCCCCCC/C=C\CC/C=C\CC[C@@H](O)[C@H](O)CCCCCCCCCCC1=C[C@H](C)OC1=O [Montecristin], the IC50 ([1]; in SRB Extract 6) is reported as 40 µM and the IC50 [1, 2] is reported as 17.4 to 69.5 µM.

Source: patent US20100015258A1, “Rice Bran Extracts and Methods of Use Thereof” (priority 2008, published 2010)
